Experimental data from patent publication EP4107145B1, “PYRAZOLE-INDOLE CONJUGATES FOR PHOTODYNAMIC TREATMENT OF CANCER AND BACTERIAL INFECTIONS” (Univerzita Palackého v Olomouci, priority 2020, dated 2021).

Columns and labels:
[1] = Absorption and fluorescence properties in water; format: physicochemical; details: for λem: λex 360 nm for compound 5, 385 nm for compounds 7 and 10
Procedure: All chemicals and solvents were purchased from commercial suppliers and used without further purification unless otherwise specified. Prior to use, N,N-dimethylformamide was stored over molecular sieves (4 Å), while toluene and dichloromethane were dried over anhydrous sodium sulfate. All reactions were performed in oven dried flasks under argon atmosphere with magnetic stirring. Reaction progress was monitored by TLC analysis on Macherey-Nagel™ ALUGRAM® Xtra SIL G/UV254 plates. TLC plates were visualized with UV light (wavelengths 254 and 365 nm) or iodine vapour. Compounds were purified by flash chromatography in a glass column (stationary phase - silicagel, high-purity grade 9385, pore size 60 Å, particle size - 230-400 mesh, supplier Sigma-Aldrich). ^1H and ^13C NMR spectra were recorded at room temperature on a Bruker Avance III 700 spectrometer (700 MHz for ^1H and 176 MHz for ^13C) in CDCl3 as solvent. FT-IR spectra were collected using ATR method on a Bruker Vertex 70v spectrometer with an integrated Platinum ATR accessory. The melting points of crystalline compounds were determined in open capillary tubes with a Buchi M-565 apparatus (temperature gradient - 2 °C/min) and are uncorrected. High-resolution mass spectrometry (HRMS) spectra were obtained in ESI mode on a Bruker MicrOTOF-Q III spectrometer. UV-Vis absorption and fluorescence spectra were registered on an Infinity M200 Pro Tecan microplate reader.
Fluorescence properties of final compounds 5, 7 and 10 were investigated in water. The excitation wavelength λex was set to 360 nm for compound 5 and to 385 nm for compounds 7 and 10. The emission maxima λem of all three compounds are located in the 475-525 nm range, which corresponds to the blue part of the visible light spectrum.
On the other hand, as expected an additional double bond in compound 10, compared to compound 7, caused both a bathochromic shift of the emission maxima. […] Table 2. Absorption and fluorescence characteristics of compounds 5, 7 and 10 in water.

[2] = test system: G361 cell line; test: MTT cell viability assay without irradiation (dark viability); format: cell-based, human; details: G361, treated 24 h, no irradiation; viability similar to untreated cells
Procedure: G361 cell line (human skin melanoma) was cultivated in DMEM medium supplemented with 10% fetal bovine serum, 1% penicillin/streptomycin, 1% glutamine, at 37 °C in 5% CO2 atmosphere. Viability of cells was determined using the MTT (Sigma-Aldrich) assay in 96-well microplates (10^4 per well in 100 µl of DMEM). The test compounds were added 24 h post plating and the cells were then incubated for additional 24 h. Cells were then exposed to an irradiation in 100 µl of PBS with 5 mM glucose and incubated for further 24 h. After the experiment, 50 µl of MTT (dissolved in PBS) was added and cells were incubated for another 3 h at 37 °C and in 5 % CO2. The media was then carefully replaced with 100 µl of DMSO in order to solubilize the violet formazan crystals. The measurement of absorbance was carried out on reader Synergy HT at 570 nm and 690 nm. The cell viability of the samples was determined as a percentage of the control cell viability (100 × average of test group / average of control group). The data for the determination of EC50 was calculated using the Phototox v. 2.0 software (ZEBET). Dark viability was measured in parallel under the same conditions without irradiation. The viability of cells treated with compounds 5, 7 and 10 for 24 h without irradiation was similar to untreated cells, thus concluding that the compounds have no cytotoxicity up to 10 µM concentrations (Figure 4).

[3] = test system: irradiated G361 cells; test: Photodynamic treatment (LED 414 nm) with MTT cell viability assay; format: cell-based; details: Homo sapiens, G-361, light or radiation study
Procedure: G361 cell line (human skin melanoma) was cultivated in DMEM medium supplemented with 10% fetal bovine serum, 1% penicillin/streptomycin, 1% glutamine, at 37 °C in 5% CO2 atmosphere. Viability of cells was determined using the MTT (Sigma-Aldrich) assay in 96-well microplates (10^4 per well in 100 µl of DMEM). The test compounds were added 24 h post plating and the cells were then incubated for additional 24 h. Cells were then exposed to an irradiation in 100 µl of PBS with 5 mM glucose and incubated for further 24 h. After the experiment, 50 µl of MTT (dissolved in PBS) was added and cells were incubated for another 3 h at 37 °C and in 5 % CO2. The media was then carefully replaced with 100 µl of DMSO in order to solubilize the violet formazan crystals. The measurement of absorbance was carried out on reader Synergy HT at 570 nm and 690 nm. The cell viability of the samples was determined as a percentage of the control cell viability (100 × average of test group / average of control group). The data for the determination of EC50 was calculated using the Phototox v. 2.0 software (ZEBET). Dark viability was measured in parallel under the same conditions without irradiation. An in-house constructed LED based light source specifically designed for the irradiation of 96-well microplates and Petri dishes (Tomecka et al., CZ302829B6, 2006) was used; a maximal wavelength emission of 414 nm and light intensity set to 20 mW/cm^2. For photodynamic treatments, cultivation medium was aspirated and replaced by PBS supplemented with 5 mM glucose. Immediately after irradiation, PBS was removed and full DMEM was added to cells. The cultivation lasted for subsequent 24 h. All assays were performed in triplicates and repeated independently three times. In an initial experiment, G361 cells were treated with the tested compounds for 24 h and then exposed to light (LED source, 414 nm) with a total irradiation dose of 10 J/cm^2. Viability of cells was quantified 24 h after the irradiation by an MTT assay (Table 3). Subsequently, G361 cells treated with compound 7 were also exposed to total irradiation doses of 1 and 50 J/cm^2. Table 3. EC50 of compounds 5, 7 and 10 in irradiated G361 cells (10 J/cm2).

[4] = test system: G361 cell line; test: Reactive oxygen species (ROS) production, CM-H2DCFDA fluorescence; format: cell-based, human; details: G361, 0.052 µM, irradiation of 50 J/cm2 (414 nm)
Procedure: ROS was quantified using a CM-H2DCFDA (Invitrogen) solution (10 µl 10 µM DCF + 1 ml PBS) and a microplate reader Synergy HT. Right after adding 50 µl of DCF solution, 25 min incubation and irradiation, the ROS production was determined by measuring fluorescence using Synergy HT reader. An excitation wavelength of 485 nm and an emission wavelength of 548 nm were used.

[5] = test system: G361 cells; test: Mitochondrial membrane potential change assay (JC-1); format: cell-based, human; details: G361, 0.052 µM, irradiated with 50 J/cm^2 (414 nm)
Procedure: Mitochondrial membrane potential change was monitored by the fluorescent dye JC-1. After 24 h incubation the cells were washed by PBS. Then 50 µl of a JC-1 solution (Sigma-Aldrich) was added (5 mg/ml in DMSO + 5 ml PBS) and cells were incubated at 37 °C and in 5 % CO2 for 20 min. After incubation the cells were washed by PBS twice. The results were expressed as the ratio of the green fluorescence (excitation wavelength - 485 nm, emission wavelength - 548 nm) and red fluorescence (excitation wavelength - 520 nm, emission wavelength - 590 nm) retained within the cells. JC fluorescence was measured using Synergy HT reader.

[6] = test system: G361 cells; test: Comet assay (DNA fragmentation); format: cell-based, human; details: irradiated with 50 J/cm2
Procedure: Microscope slides were pre-coated with 1% HMP agarose (Qbiogene) dissolved in distilled water. After stiffening, two 1% agarose spots (dissolved in PBS) were made and overlayed with a cover slip. Treated or control G361 cells were trypsinized, rinsed by DMEM and then the mixture of 25 µl of cell suspension and 85 µl of 1% LMP agarose (dissolved in PBS) was added to the microscope slides with agarose gel. The microscope slides were immersed in a lysis buffer with 1% Triton X for 1 h and then placed in an electrophoretic tank and dipped into a cool electrophoresis solution for 40 min. After the electrophoresis (20 V, 350 mA, 20 min), the microscopic slides were immersed in a neutralisation buffer (10 min twice). The samples were then stained by SYBR Green (Invitrogen) for 15 min and scored by the SW Comet Score (TriTek Corp.). In order to determine the extent of DNA fragmentation caused by a combination of compound 7 and irradiation in G361 cells, comet assay was performed (Figure 4). The cells were divided into four groups according to degree of DNA fragmentation: 0-10%, 11-30%, 31-50% and 50-100%. […] Table 5. Degree of DNA fragmentation in G361 cell line treated by compound 7 at 0.052 µM and irradiated with 50 J/cm2.

[7] = test system: histone H2A.X phosphorylation at Ser-139; test: DNA damage by immunoblotting of histone H2A.X phosphorylation; format: cell-based, human; details: G361, treated 24 h
Procedure: After the treatment, cell lysates were prepared in RIPA buffer, then proteins were separated on SDS-polyacrylamide gels and electroblotted onto nitrocellulose membranes. After blocking, overnight incubation with specific primary antibodies and incubation with peroxidase-conjugated secondary antibodies, the peroxidase activity was detected with SuperSignal West Pico reagents (Thermo Scientific) using a CCD camera LAS-4000 (Fujifilm). All primary antibodies were diluted in PBS containing 5% powdered milk and 0.1% Tween 20. The specific antibodies were purchased from Cell Signaling (anti-PARP, clone 46D11; HRP-linked rabbit anti-mouse immunoglobulin), Sigma Aldrich (anti-α-tubulin, clone DM1A), Millipore (anti-phospho-histone H2A.X, Ser139, clone JBW301). To independently confirm DNA damage caused by a combination of compound 7 and irradiation in G361 cells, phosphorylation of histone H2A.X at Ser-139 (yH2A.X) was evaluated using immunoblotting analysis (Figure 5). Increased level of yH2A.X is a well-accepted marker of DNA damage. The cells were treated with different doses of compound 7 for 24 h, then either kept in dark or exposed to light with a total irradiation dose of 1, 10 or 50 J/cm^2 and cultivated for subsequent 24 h. After this period, the cells were harvested and analyzed by immunoblotting.

[8] = test system: Escherichia coli (DH5alpha); test: Antimicrobial activity with light irradiation, colony counting; format: cell-based; details: in combination with blue light irradiation (414 nm), Fig. 6
Procedure: Antimicrobial activity was tested on Escherichia coli (DH5alpha).The cells were grown aerobically at 37°C in LB medium. When reached exponential growth phase, the suspension was diluted with fresh LB and supplemented with test compounds or with diluted DMSO (as a control) and seeded on Petri dishes with agar media. After 5 hours the plates were exposed to light from a light emitting diode source, a maximal wavelength emission of 414 nm, light intensity set to 20 mW/cm^2 (M. Tomecka, et al., CZ302829B6, 2006). The control samples for dark toxicity were not exposed to the light. After irradiation the plates were in the dark incubator at 37 °C for 16 h and then the colonies were counted.

[9] = 24 h, G361, 24 h treatment, 414 nm, total irradiation dose 10 J/cm2, MTT 24 h after irradiation

λabs [1] [nm] | λem [1] [nm] | SMILES | cytotoxicity without irradiation (dark viability) [2] [µM] | EC50 [3, 9] [µM] | EC50 ([3]; G361, 414 nm, total irradiation dose 1 J/cm^2) [µM] | EC50 ([3]; G361, 414 nm, total irradiation dose 50 J/cm^2) [µM] | ROS production increase in comparison to control cells [4] [%] | JC-1 polymer aggregation within mitochondria (mitochondrial membrane potential) [5] | DNA fragmentation in comparison with untreated control cells ([6]; G361, 0.052 µM) | relative number of cells, degree of DNA fragmentation 0-10 % ([6]; G361, treated, 0.052 µM) [%] | relative number of cells, degree of DNA fragmentation 11-30 % ([6]; G361, treated, 0.052 µM) [%] | relative number of cells, degree of DNA fragmentation 31-50 % ([6]; G361, treated, 0.052 µM) [%] | relative number of cells, degree of DNA fragmentation 51-100 % ([6]; G361, treated, 0.052 µM) [%] | H2A.X phosphorylation (yH2A.X) ([7]; irradiation dose 1 J/cm2 (414 nm)) | H2A.X phosphorylation (yH2A.X) ([7]; irradiation dose 10 J/cm2 (414 nm)) | H2A.X phosphorylation (yH2A.X) ([7]; irradiation dose 50 J/cm2 (414 nm)) | H2A.X phosphorylation (yH2A.X) ([7]; kept in dark) | antibacterial effect [8]
380 | 525 | CCCCCCOc1nn(-c2ccccc2)cc1/C=C/C=C/c1ccc2c(c1)C(C)(C)C(c1ccccc1)=N2 [Compound 10, 5-{(1E, 3E)-4-[3-(Hexyloxy)-1-phenyl-1H-pyrazol-4-yl]buta-1,3-dien-1-yl}-3,3-dimethyl-2-phenyl-3H-indole] | > 10 | 2.06 ± 0.082 |  |  |  |  |  |  |  |  |  |  |  |  |  | 
355 | 475 | CCCCCCOc1nn(-c2ccccc2)cc1C#Cc1ccc2c(c1)C(C)(C)C(c1ccccc1)=N2 [Compound 5, 5-{[3-(Hexyloxy)-1-phenyl-1H-pyrazol-4-yl]ethynyl}-3,3-dimethyl-2-phenyl-3H-indole] | > 10 | 6.213 ± 0.038 |  |  |  |  |  |  |  |  |  |  |  |  |  | 
380 | 495 | CCCCCCOc1nn(-c2ccccc2)cc1/C=C/c1ccc2c(c1)C(C)(C)C(c1ccccc1)=N2 [Compound 7, 5-{(E)-2-[3-(Hexyloxy)-1-phenyl-1H-pyrazol-4-yl]ethenyl}-3,3-dimethyl-2-phenyl-3H-indole] | > 10 | 0.262 ± 0.002 | 3.08 ± 0.155 | 0.052 | 30 | decrease in JC-1 polymer aggregation within mitochondria | significant DNA fragmentation | 62.83 ± 2.72 | 30.73 ± 4.07 | 4.84 ± 0.65 | 1.6 ± 1.59 | faint yH2A.X signal | massive increase of yH2A.X | massive increase of yH2A.X | did not show any H2A.X phosphorylation | antibacterial effect
